From patent publication US11628160B2, “Compositions and methods for treating brain injury” (Azevan Pharmaceuticals, Inc., priority 2017, dated 2023)

What was measured:
[1] = tested on: Male Sprague Dawley rats; test: Barnes Maze test (momentum exchange impact model); assay type: in vivo, rat
Method: (§1) EXAMPLE. Momentum exchange impact model. This model features several advantageous translational differences over some head injury models, such as the controlled cortical impact injury model. For example, the head, neck and body can move with impact, and the velocity of head movement and energy transfer can be calculated and scaled mild to provide range from moderate to severe concussions. Studies are conducted with moderate impacts with neuroradiological evidence of contusions. Male rats are concussed twice with one day. Additional details are described in Viano et al., “Evaluation of three animal models for concussion and serious brain injury” Ann Biomed Eng. 40(1):213-26 (2012). […] Sham non-concussed test animals are given vehicle or test compound. Test animals are treated twice daily for 5 consecutive days. At two weeks post concussion cognitive behaviors are assessed, using for example, the Barnes maze and/or novel recognition models. In addition, motor behaviors are assessed, using for example, beam walk and/or rotarod tests. In each case, neuroradiological MRI is also performed.
(§2) Beginning on postnatal (P)70, animals are divided into 3 groups (n=6-7/group; Sham Control Group (Control, CG), Injury Group (IG), and Treatment Group (TG) and begin their head impact, and drug regimens. All groups are anaesthetized with 4% isoflurane in oxygen, and Injury group and Treatment group receive the first of two total head impacts) using a custom setup from Animal Imaging Research (AIR; Holden, Mass.) on P70. The day after the first impact (P71), test compound, such as AVN576, is administered to the Treatment group and the Sham Control group. In addition, a vehicle only control group (VCG) is administered saline. All administrations re administered to the Control and Treatment groups twice per day at 0700 and 1400 (IP @10 mg/kg). The drug regimen is continued over the following 4 days (5 days total). The second head impact is delivered two days following the first on P72. Two weeks post impact, animals are imaged and tested for cognitive and motor behaviors. In all evaluations made, there was not a significant difference between the sham control group (CG) receiving test compounds and vehicle-only sham control group (VCG) receiving vehicle.
EXAMPLE. Barnes Maze test results. This test assesses spatial learning and memory.

[2] = tested on: Male Sprague Dawley rats; test: Treatment in the momentum exchange impact model; assay type: in vivo, rat; details: concussed rats, two head impacts; IP 10 mg/kg twice daily 5 days; two weeks post impact; vs sham Control
Method: EXAMPLE. Momentum exchange impact model. This model features several advantageous translational differences over some head injury models, such as the controlled cortical impact injury model. For example, the head, neck and body can move with impact, and the velocity of head movement and energy transfer can be calculated and scaled mild to provide range from moderate to severe concussions. Studies are conducted with moderate impacts with neuroradiological evidence of contusions. Male rats are concussed twice with one day. Additional details are described in Viano et al., “Evaluation of three animal models for concussion and serious brain injury” Ann Biomed Eng. 40(1):213-26 (2012). […] Sham non-concussed test animals are given vehicle or test compound. Test animals are treated twice daily for 5 consecutive days. At two weeks post concussion cognitive behaviors are assessed, using for example, the Barnes maze and/or novel recognition models. In addition, motor behaviors are assessed, using for example, beam walk and/or rotarod tests. […]
The pneumatic pressure drive is replicated, 50 g compactor, as described by Viano and reproduced consistently, the 7.4, 9.3, and 11.2 m/s impact velocities described for mild, medium, and severe head injury, respectively. The data described herein are obtained from a 9.12 meters/sec impact velocity, as determined using high-speed video recordings. […]

[3] = tested on: Male Sprague Dawley rats; test: Motor behavior (balance beam, rotarod); assay type: in vivo, rat
Method: EXAMPLE. Momentum exchange impact model. This model features several advantageous translational differences over some head injury models, such as the controlled cortical impact injury model. For example, the head, neck and body can move with impact, and the velocity of head movement and energy transfer can be calculated and scaled mild to provide range from moderate to severe concussions. Studies are conducted with moderate impacts with neuroradiological evidence of contusions. Male rats are concussed twice with one day. Additional details are described in Viano et al., “Evaluation of three animal models for concussion and serious brain injury” Ann Biomed Eng. 40(1):213-26 (2012). […] Sham non-concussed test animals are given vehicle or test compound. Test animals are treated twice daily for 5 consecutive days. At two weeks post concussion cognitive behaviors are assessed, using for example, the Barnes maze and/or novel recognition models. In addition, motor behaviors are assessed, using for example, beam walk and/or rotarod tests. In each case, neuroradiological MRI is also performed. […]

[4] = target: T1, human V1a receptor (Homo sapiens, UniProt P37288); test: Human vasopressin V1a receptor binding assay; details: selectivity table; read-out: inhibition data Ki, V1a
T1 construct: host or cells: CHO cells
T1 sequence (P37288 whole entry): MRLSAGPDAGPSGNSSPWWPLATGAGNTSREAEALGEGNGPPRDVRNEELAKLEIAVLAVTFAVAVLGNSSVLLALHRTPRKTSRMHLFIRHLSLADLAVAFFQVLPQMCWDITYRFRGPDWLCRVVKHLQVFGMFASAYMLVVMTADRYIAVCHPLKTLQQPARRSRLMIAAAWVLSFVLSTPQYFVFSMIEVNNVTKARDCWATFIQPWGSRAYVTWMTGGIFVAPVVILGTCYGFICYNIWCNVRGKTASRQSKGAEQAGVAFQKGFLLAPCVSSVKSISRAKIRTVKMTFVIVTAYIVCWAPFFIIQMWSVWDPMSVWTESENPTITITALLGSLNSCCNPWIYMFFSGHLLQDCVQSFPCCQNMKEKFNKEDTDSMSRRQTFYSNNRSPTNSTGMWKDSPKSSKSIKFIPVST
How it was run: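 Whole CHO cells expressing human V1a incubated with 1 nM 3H-AVP and 10-fold compound dilutions in 25 mM Hepes, 0.25% BSA, DMEM pH 7.0 for 45 min at 37 °C. Nonspecific binding with 100 nM unlabelled AVP. Cells SDS-lysed, scintillation counted; IC50 by curve fitting.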

[5] = tested on: Male Sprague Dawley rats; test: Novel Object Recognition test (momentum exchange impact model); assay type: in vivo, rat
Method: as §1, §2
EXAMPLE. Novel Object Recognition test results. This test assesses episodic learning and memory-related stimulus recognition.

Ki [4]: 1.1 nM
Structure (SMILES): C[C@@H](NC(=O)[C@@H](CC(=O)N1CCC(N2CCCCC2)CC1)N1C(=O)[C@@H](N2C(=O)OC[C@@H]2c2ccccc2)[C@H]1/C=C/c1cccc(I)c1)c1ccccc1 [Example 266]
distance traveled before finding the goal box: Injury group relative to Treatment group ([1]; P=0.03): significantly greater distance | error duration (time exploring wrong holes): Injury group relative to Treatment group ([1]; P=0.03): significantly more time exploring the wrong holes | deficits in learning and memory, Barnes maze ([1]; Treatment group, did not differ from control group): did not show any deficits in learning and memory | latency to find the goal box: Injury group relative to Treatment group ([1]; collapsed across acquisition days, P=0.04): longer latencies to find the goal box | deficits in learning and memory [2]: no deficits in learning and memory | rotarod latency to fall ([3]; Treatment group, Injury group 69.8±5.5, Control group 105.4±7.6, P=0.2): 84.0 ± 9.0 s | overall motor behavior, Control vs Treatment group ([3]; concussed rats, IP 10 mg/kg twice daily 5 days): not a significant difference in overall motor behavior | percentage of time with the novel object compared to the Injury group ([5]; Treatment group P=0.003): significantly longer percentage of time | total time with the novel object compared to the Injury group ([5]; Treatment group P=0.02): significantly more total time | exploration index (exploration instances) compared to the Injury group ([5]; Treatment group P=0.06): only a trend towards significance | time investigating the novel object (recognition index) compared to chance ([5]; Treatment group, t(5)=2.61, p<0.05, IP 10 mg/kg twice daily 5 days): significantly greater than a chance amount of time
